Results published in US12660818B2, “Strigolactone analogs and methods of using” (King Abdullah University of Science and Technology, priority 2019, dated 2026).
Read-outs that look alike come from different tables or passages of the source.

Legend:
[1] = tested on: P. aegyptiaca seeds; experiment: Parasitic seed germination bioassay, Phelipanche; assay type: in vivo, Phelipanche aegyptiaca; settings: 2.5 μM; for Phelipanche aegyptiaca germination rate: one week at 25° C. in dark
Experimental: (§1) Seeds of the two root parasitic species S. hermonthica and P. aegyptiaca were tested for germination in response to MP compounds application. After pre-conditioning, as previously described (Jamil et al., 2012), Striga and Phelipanche seeds were first tested with each MP solutions at 2.5 μM concentration (55 μl per disc) and then at a concentration range from 10^−5M to 10^−12M, to calculate EC50. Sterile MilliQ water and GR24 were applied as a negative and a positive control, respectively. Treated seeds were incubated in dark for 24 h at 30° C. (for S. hermonthica) and for one week at 25° C. (for P. aegyptiaca). Germination was recorded under a binocular microscope and used to determine the germination rate (%).

[2] = tested on: SL insensitive d3 rice mutant; experiment: Rice micro tillering bioassay, SL insensitive d3 mutant; assay type: in vivo; settings: 2.5 μM, three weeks, no effect of treatment
Experimental: (§2) After sterilization with 50% sodium hypochlorite, rice seeds (d10/CCD8 and d3 mutants) were germinated on moist filter paper in the dark at 30° C. The germinated seeds were then transferred to light in a growth cabinet with fluorescent white light (130-180 μM m^−2 s^−1) at 30° C. for seven days. One-week old rice seedlings were shifted to 50 ml falcon tubes (one seedling per tube) filled with half-strength modified Hoagland nutrient solution. The tubes with rice seedlings were kept in green house to grow at 30° C. and 70% humidity. After one week, the rice seedlings were treated with 2.5 μM of each SL analog. Mock and GR24 (2.5 μM) were included as control treatments. Each of the SL analogs (MPs 16-18 and 21-25) was applied twice per week up to three weeks. Number of tillers per plant, plant height and dry biomass were measured after three weeks of SL analogs application at final harvest.
(§3) Standard procedure was adopted to collect data for each trait, which were analyzed statistically using statistical software package R (version 3.2.2). One-way analysis of variance (ANOVA) and LSD (Least significant difference) multiple range test were applied to investigate the effect of various SL analogs (MPs 16-18 and 21-25) for various parameters. Half Maximum Effective Concentration (EC50) was calculated using IC50 toolkit (http://www.ic50.tk/index.html).

[3] = tested on: S. hermonthica seeds; experiment: Parasitic seed germination bioassay, Striga; assay type: in vivo, Striga hermonthica; settings: for Striga germination rate / Striga germination rate (comparison in words): 2.5 μM; for Striga germination rate: 24 h at 30° C. in dark; for EC50: 10^−5M to 10^−12M
Experimental: as §3, §1

[4] = target: ShHTL7 (Striga hermonthica, UniProt A0A0M3PNA2); experiment: In vitro YLG (Yoshimulactone Green) hydrolysis competition assay with ShHTL7; assay type: biochemical; settings: competition with 1.0 μM YLG, 60 min, room temperature
Experimental: (§4) Purification of ShHTL7/OsD14 was carried out by adopting the procedure explained previously (Jamil et al., 2018). In vitro YLG hydrolysis assays were conducted as described before (Tsuchiya et al., 2015). About 3.0 μM of purified ShHTL7/OsD14 protein was used in a reaction buffer (1×PBS buffer, pH 7.3) with 0.1% dimethyl sulfoxide (DMSO) at a 100 μl volume on a 96-well black plate (Greiner). SL analogs (at range between 0.01 to 50 μM) were co-incubated with 1.0 μM of YLG (Tokyo Chemical Industry Co. Ltd., product number E1238) for 60 min at room temperature. In this competition assay, fluorescent intensity was measured by spectraMax i5 (Molecular Devices) at excitation at 480 nm and detection at 520 nm. The variation in fluorescence recorded over the course of 1 h of YLG incubation in protein-free buffer was subtracted from the data collected in presence of protein. IC50 values were calculated by using Quest Graph™ IC50 Calculator.

[5] = target: T1, OsD14 (Oryza sativa subsp. japonica, UniProt Q10QA5); experiment: In vitro YLG (Yoshimulactone Green) hydrolysis competition assay with OsD14; assay type: biochemical, rice
T1 construct: made in house
T1 sequence (Q10QA5 1-318): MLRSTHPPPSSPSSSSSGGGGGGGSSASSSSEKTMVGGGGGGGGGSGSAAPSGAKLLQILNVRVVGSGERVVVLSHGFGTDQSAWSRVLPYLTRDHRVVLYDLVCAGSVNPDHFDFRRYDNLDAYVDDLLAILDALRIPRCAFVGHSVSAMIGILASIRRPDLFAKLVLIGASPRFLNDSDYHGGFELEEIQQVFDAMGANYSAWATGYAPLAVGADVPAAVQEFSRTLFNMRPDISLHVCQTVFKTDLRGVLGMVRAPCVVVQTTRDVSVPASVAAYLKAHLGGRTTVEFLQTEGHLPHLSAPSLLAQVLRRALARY
Experimental: as §4

[6] = tested on: rice (cv IAC-165) leaf segments; experiment: Dark-induced leaf senescence of rice leaf segments; settings: 3.0 μM; for ion leakage (loss of membrane integrity): continued to increase till day 6; for chlorophyll content: third and fourth day of treatment
Experimental: Rice seeds (cv IAC-165) were surface sterilized with 50% sodium hypochlorite solution and 0.05% Tween-20, and germinated on moist filter paper in the sealed petri plates. The petri plates with germinated seeds were transferred to white fluorescent light (130-180 μM m^−2 s^−1) with 16 h:8 h (L/D) at 28° C., to establish seedlings for one week. Seven days old uniform seedlings were selected and transferred to 50 ml tubes containing half strength modified Hoaglands nutrient solution. After one week, 2 cm leaf segments were cut from middle part of third leaves of rice plants. Each segment was put in a well (in 12-well plates) containing 4 ml of 3.0 mM MES buffer with 0.05% Tween-20. MP16 and GR24 were applied at 3.0 μM concentration. Plates were incubated at 30° C. in the dark for 7 days. After application of MP16 and GR24, plates were monitored on a daily basis and changes in leaf color, chlorophyll content and ion leakage were monitored.

[7] = tested on: S. hermonthica seeds; settings: previously described MPs, cited from earlier work
[8] = Chemical stability in aqueous solution monitored by HPLC/UPLC; assay type: physicochemical; settings: aqueous solution pH 5.5-6.0, 21±1° C., HPLC, up to 3 weeks
Experimental: Three selected MPs (MP16, MP18, MP21) and rac-GR24 were tested for their chemical stability at 21±1° C. in aqueous solution with a pH of 5.5-6.0, as described previously (Jamil et al., 2018). Compound solution (1 mg ml^−1) was prepared with […] and 750 μl Mili-Q water. Thereafter, 25 μl Indanol (1 mg ml^−1, internal standard) was spiked in 975 μl previous prepared solution. The time course of degradation was monitored in about 50 μl aliquots by UPLC analysis using an Agilent HPLC ZORBAX Eclipse XDB-C18 column ([…], 4.6×150 mm) eluted first by 5% acetonitrile in water for 0.5 min then by a gradient from 5% to 100% acetonitrile within 18 min in water, and finally by 100% acetonitrile for 5 min. The column was operated at 40° C. at […] flow rate. Compounds eluted from the column were detected with a photodiode array detector, and the relative quantity of non-degraded amount was calculated using Indanol as internal standard. Stability was monitored at 24 h intervals up to 3 weeks.

[9] = tested on: SL deficient d10/CCD8 rice mutant; experiment: Rice micro tillering bioassay, SL deficient d10/CCD8 mutant; assay type: in vivo; settings: 2.5 μM
Experimental: as §2, §3

Chain of ShHTL7 (A0A0M3PNA2 entry or part of it): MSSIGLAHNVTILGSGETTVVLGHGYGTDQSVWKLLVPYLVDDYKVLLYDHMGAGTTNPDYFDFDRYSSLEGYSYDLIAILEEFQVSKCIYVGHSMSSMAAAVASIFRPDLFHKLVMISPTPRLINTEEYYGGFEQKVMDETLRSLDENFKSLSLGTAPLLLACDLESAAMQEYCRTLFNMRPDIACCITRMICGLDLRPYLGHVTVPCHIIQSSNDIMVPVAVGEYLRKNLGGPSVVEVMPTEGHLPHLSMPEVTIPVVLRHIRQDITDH

SMILES	Phelipanche aegyptiaca germination rate [1]	Striga germination rate (comparison in words) [3]	EC50 ([3]; Striga hermonthica)	EC50 compared with MPs 19 and 20 ([3]; Striga seed germination)	stability (relative amount of non-degraded compound) compared to GR24 [8]	Phelipanche seed germination (comparison in words) [1]	further results
CC1=C[C@H](O/C=C2/C(=O)O[C@@H]3c4ccccc4C[C@H]23)OC1=O [GR24, reference compound]	43%	–	–	–	–	–	number of tillers per plant [2]: 4; Striga germination rate [3]: 72%; EC50 [3]: 0.0723 nM; IC50 [4]: 980 ± 260 nM; IC50 ([5]; competition with 1.0 μM YLG, 60 min, room temperature, read-out: IC50, OsD14-mediated YLG hydrolysis): 1040 ± 90 nM; loss of the green color of leaf segments (time) ([6]; dark, 30° C., one day earlier than mock control): on the third day after application; ion leakage (loss of membrane integrity) ([6]; dark): began to increase on the third day of treatment; chlorophyll content [6]: significant reduction
COC(=O)/C(=C/OC1C=C(C)C(=O)O1)c1ccc([N+](=O)[O-])cc1 (centres unmarked) [MP1]	–	–	–	–	–	–	EC50 relative to that of GR24 (Jamil et al., 2018) [7]: about 17 times; EC50 ([7]; read-out: EC50 (Striga seed germination, Jamil et al., 2018)): 1.5 nM
CC1=CC(O/C=C(\C(=O)N(C)C)c2ccccc2)OC1=O (centres unmarked) [MP16, (Z)—N,N-Dimethyl-3-((4-methyl-5-oxo-2,5-dihydrofuran-2-yl)oxy)-2-phenylacrylamide]	around 51%	higher than MPs 19 and 20	0.105 nM	lower EC50 than MPs 19 and 20	in the range of that of GR24	–	Striga germination rate [3]: 62%; EC50 relative to that of GR24 ([3]; Striga seed germination): less than two times higher; IC50 [4]: 4370 ± 210 nM; tillering inhibition (in words) ([9]; d10 mutant, compared to mock treatment): more effective compared with MPs 19 and 20; effect on growth, biomass and plant height ([9]; rice seedlings, compared with GR24): stunted growth and triggered senescence in rice seedlings, leading to reduced biomass and plant height; IC50 [5]: 3070 ± 540 nM; ion leakage (loss of membrane integrity) ([6]; dark): began to increase on the third day of treatment; chlorophyll content [6]: significant reduction
CC1=CC(O/C=C(/C(=O)Oc2ccccc2)c2ccccc2)OC1=O (centres unmarked) [MP17, (E)-Phenyl 3-((4-methyl-5-oxo-2,5-dihydrofuran-2-yl)oxy)-2-phenylacrylate]	–	lower germination rate	4350 nM	–	–	–	–
CC1=CC(O/C=C(/C(=O)OCc2ccccc2)c2ccccc2)OC1=O (centres unmarked) [MP18, (E)-Benzyl 3-((4-methyl-5-oxo-2,5-dihydrofuran-2-yl)oxy)-2-phenylacrylate]	around 51%	lower germination rate	6.44 nM	lower EC50 than MPs 19 and 20	in the range of that of GR24	–	–
CC1=CC(O/C=C(/C(=O)OCC(C)C)c2ccccc2)OC1=O (centres unmarked) [MP19, reference compound]	–	–	–	–	–	comparable germination rate as MPs 16 and 18	–
CC1=CC(O/C=C(/C(=O)OCc2ccccc2)c2ccccc2)OC1=O (centres unmarked) [MP21, (E)-Benzyl 3-((4-methyl-5-oxo-2,5-dihydrofuran-2-yl)oxy)-2-phenylacrylate]	–	–	–	lower EC50 than MPs 19 and 20	higher degradation rate, compared to GR24	lower activity	–
CC1=CC(O/C=C(/C(=O)Oc2cccc(Cl)c2)c2ccccc2)OC1=O (centres unmarked) [MP22, (E)-3-Chlorophenyl 3-((4-methyl-5-oxo-2,5-dihydrofuran-2-yl)oxy)-2-phenylacrylate]	–	–	–	–	–	lower activity	–
CC1=CC(O/C=C(/C(=O)Oc2ccc(C)cc2)c2ccccc2)OC1=O (centres unmarked) [MP24, (E)-p-Tolyl 3-((4-methyl-5-oxo-2,5-dihydrofuran-2-yl)oxy)-2-phenylacrylate]	–	–	–	–	–	lower activity	–
CC1=CC(O/C=C(/C(=O)Oc2cccc3ccccc23)c2ccccc2)OC1=O (centres unmarked) [MP25, (E)-naphthalen-1-yl 3-((4-methyl-5-oxo-2,5-dihydrofuran-2-yl)oxy)-2-phenylacrylate]	–	–	–	–	–	lower activity	–
